For orientation: Km means the concentration of substrate that gives half-maximal velocity. For orientation: IC50 means the concentration that inhibits the measured activity by half.

Results on 6 compounds are retold here after article PMC6152279, “Characterization of the Fifth Putative Acetylcholinesterase in the Wolf Spider, Pardosa pseudoannulata” (Molecules : A Journal of Synthetic Chemistry and Natural …, 2017).

Test [1] concerns PpAChE4. To be noted: cited from earlier work; for Km / Vmax: substrate hydrolysis by PpAChE4.
In test [2] the test system is PpAChE3. To be noted: cited from earlier work; for Km / Vmax: substrate hydrolysis by PpAChE3.
The subject of test [3] is PpAChE1. The conditions noted are these: cited from earlier work; for Km / Vmax: substrate hydrolysis by PpAChE1.
Test [4] deals with T1, PpAChE5 (Pardosa pseudoannulata, UniProt A0A1B1FIV8).
T1 sequence (A0A1B1FIV8 25-553): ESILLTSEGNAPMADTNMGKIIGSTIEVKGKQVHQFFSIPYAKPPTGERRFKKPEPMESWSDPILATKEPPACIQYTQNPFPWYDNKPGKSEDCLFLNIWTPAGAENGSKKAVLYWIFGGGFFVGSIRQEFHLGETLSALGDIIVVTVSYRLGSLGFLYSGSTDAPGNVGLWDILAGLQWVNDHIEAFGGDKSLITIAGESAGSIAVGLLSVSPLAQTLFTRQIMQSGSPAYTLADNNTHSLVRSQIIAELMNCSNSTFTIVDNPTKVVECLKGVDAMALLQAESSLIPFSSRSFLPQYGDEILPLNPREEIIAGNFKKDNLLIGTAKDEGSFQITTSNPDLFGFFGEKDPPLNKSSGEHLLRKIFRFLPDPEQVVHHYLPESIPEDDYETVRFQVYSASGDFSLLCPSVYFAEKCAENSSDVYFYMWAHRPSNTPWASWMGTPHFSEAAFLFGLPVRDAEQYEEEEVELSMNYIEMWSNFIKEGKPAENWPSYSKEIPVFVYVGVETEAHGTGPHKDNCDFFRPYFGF
The experiment in a line: Substrate hydrolysis kinetics of recombinant PpAChE5. The conditions noted are these: for Km / Vmax: substrate hydrolysis by PpAChE5, optimal pH. Format: biochemical. From the text: (§1) As described previously, complete coding sequence of the new putative ace gene was subcloned into the expression vector pFastBac-HTa with its specific primers (Table 5) and verified by nucleotide sequencing. The vector with an enhanced green fluorescent protein (eGFP, GenBank accession number: AAK15492), which constructed previously in our laboratory was as a control. Using baculovirus-insect expression system, Sf9 cells which infected by the recombinant Bacmid DNAs were used for protein expression, and the baculovirus culture supernatants were collected as the crude enzyme. The culture supernatants of non-infectious Sf9 cells were used as the negative control.
(§2) The methods for enzyme biochemical properties assaying were performed as described previously. Fifty microliters of enzyme, 100 μL of DTNB (75 μM) and 100 μL of substrate at different concentrations were mixed in a 96-well microplate for the enzyme activities detecting. Using Molecular Devices Thermomax Kinetic Microplate Reader, the mixed solutions were monitored for 20 min in 30 s intervals at 405 nm and three replications were used to calculate the mean level of enzyme activity. Different pH of the mixed-reaction solutions were employed for detecting enzyme optimal pH condition. Under the optimal pH of enzyme, the Michaelis–Menten constant value (KM) and maximal reaction velocity (Vmax) for each substrate were determined by fitting the velocity (ν) and substrate concentration ([S], 20–2000 μM) data to ν = Vmax [S]/(KM + [S]) using Prism 5.0 (GraphPad Software, La Jolla, CA, USA). Protein concentration was measured by the Protein-dye Binding Method according to the Micro BCA Protein Assay Kit (ThermoFisher, Waltham, MA, USA) instruction.

For test [5], the system named is PpAChE2. To be noted: cited from earlier work; for Km / Vmax: substrate hydrolysis by PpAChE2.
Test [6] concerns the target T1, PpAChE5. The test is described as follows: Inhibition of enzyme activity (IC50) of PpAChE5. Type of test: biochemical. The conditions noted are these: for IC50: 10 min preincubation with inhibitor.
Description: as §1, §2
To determine IC50 values of enzyme to different inhibitors, the enzyme was first incubated with an inhibitor at various concentrations ([I]) for 10 min. The residual enzyme activity (in reference to a mixture of the enzyme and buffer) was determined as above and plotted against −log10[I]. The IC50 value for each inhibitor was determined from nonlinear regression analysis of activity and −log10[I] data using Prism 5.0 (GraphPad Software, La Jolla, CA, USA). The bimolecular rate constant (ki) was determined by enzyme reaction premixed with various concentrations of an inhibitor and was fitted using Prism 5.0.

Test [7] deals with PpAChE2. The conditions noted are these: cited from earlier work.
Test [8] deals with PpAChE1. The conditions noted are these: cited from earlier work.
Test [9] relates to PpAChE4. To be noted: cited from earlier work.
The test system of test [10] is PpAChE3. The conditions noted are these: cited from earlier work.
Test [11] concerns the target T1, PpAChE5. The experiment in a line: Inhibition kinetics (bimolecular rate constant ki) of PpAChE5. The conditions noted are these: ATC hydrolysis. Type of test: biochemical.
Description: as §1
The methods for enzyme biochemical properties assaying were performed as described previously. Fifty microliters of enzyme, 100 μL of DTNB (75 μM) and 100 μL of substrate at different concentrations were mixed in a 96-well microplate for the enzyme activities detecting. Using Molecular Devices Thermomax Kinetic Microplate Reader, the mixed solutions were monitored for 20 min in 30 s intervals at 405 nm and three replications were used to calculate the mean level of enzyme activity. […] Protein concentration was measured by the Protein-dye Binding Method according to the Micro BCA Protein Assay Kit (ThermoFisher, Waltham, MA, USA) instruction. […]

“And” between values parts separate entries of the source, which are not always exact repeats. Equal entries are not always repeated. Where two headings read alike, the source gives them in different places.

Regarding `CC(=O)SCC[N+](C)(C)C.[I-]` [ATC, acetylthiocholine iodide], the “Vmax Ratio ATC vs. BTC” value in the test with PpAChE4 [1] (PpAChE4) was 0.82; in the test on PpAChE3 [2] (PpAChE3), 3.09; with PpAChE1 [3] (PpAChE1), 1.18; at PpAChE5 [4] (PpAChE5), 4.6 and 4.68; with PpAChE2 [5] (PpAChE2), 1.09. The “Vmax Ratio ATC vs. PTC” value is 1.74 in the test on PpAChE4 [1] (PpAChE4); 1.17 in the test with PpAChE3 [2] (PpAChE3); 1.48 in the test on PpAChE1 [3] (PpAChE1); 7.2 and 7.26 on PpAChE5 [4] (PpAChE5); 1.62 with PpAChE2 [5] (PpAChE2). For the same compound, the Michaelis constant (Km) in the test with PpAChE4 [1] was 61.6 ± 7.5 µM; with PpAChE3 [2] it was 42.9 ± 5.8 µM; with PpAChE1 [3], 537 ± 63.4 µM; on PpAChE5 [4] it was 1300 ± 163 µM; in the test on PpAChE2 [5], 4410 ± 534 µM. In addition, the Vmax in the test on PpAChE4 [1] was 86.6 ± 9.7 d nmol/mg·min; in the test on PpAChE3 [2], 124.7 ± 11.5 c nmol/mg·min; in the test on PpAChE1 [3], 112.6 ± 8.8 c nmol/mg·min; on PpAChE5 [4], 428.4 ± 29.2 a nmol/mg·min; in the test on PpAChE2 [5], 253.9 ± 20.4 b nmol/mg·min.

Turning to `CCCC(=O)SCC[N+](C)(C)C.[I-]` [BTC, butyrylthiocholine iodide], the “Vmax Ratio BTC vs. BTC” value in the test on PpAChE4 [1] (PpAChE4) was 2.12; with PpAChE1 [3] (PpAChE1) it was 1.25; at PpAChE5 [4] (PpAChE5) it was 1.55; in the test on PpAChE2 [5] (PpAChE2), 1.49. For the same compound, the Km is 269 ± 35.5 µM with PpAChE4 [1]; 199 ± 22.3 µM in the test with PpAChE3 [2]; 859 ± 103 µM with PpAChE1 [3]; 1530 ± 118 µM on PpAChE5 [4]; 4540 ± 326 µM with PpAChE2 [5]. For the same compound, the Vmax in the test on PpAChE4 [1] was 105.5 ± 8.9 b nmol/mg·min; in the test with PpAChE3 [2], 40.3 ± 5.6 c nmol/mg·min; in the test with PpAChE1 [3], 95.4 ± 12.8 b nmol/mg·min; on PpAChE5 [4] it was 91.6 ± 11.3 b nmol/mg·min; in the test with PpAChE2 [5], 233.9 ± 16.5 a nmol/mg·min.

Take `C=CC[N+](C)(C)c1ccc(CCC(=O)CCc2ccc([N+](C)(C)CC=C)cc2)cc1.[Br-].[Br-]` [BW284C51, 1,5-bis(4-allyldimethylammoniumphenyl)-pentan-3-one dibromide]: the “inhibition on ATC hydrolysis activity of PpAChE5” value on PpAChE5 [6] (in words) is given as “strong inhibition”. For the same compound, the IC50 is 471 ± 69.3 nM at PpAChE5 [6] (PpAChE5, on ATC hydrolysis); 2540 ± 214 nM with PpAChE2 [7] (PpAChE2, on ATC hydrolysis); 51.2 ± 7.6 nM with PpAChE1 [8] (PpAChE1, on ATC hydrolysis); 73.6 ± 10.5 nM in the test on PpAChE4 [9] (PpAChE4, on ATC hydrolysis); 36.8 ± 5.3 nM in the test with PpAChE3 [10] (PpAChE3, on ATC hydrolysis).

On to `CNC(=O)Oc1ccc2c(c1)[C@]1(C)CCN(C)[C@@H]1N2C` [Eserine, eserine], for which the “inhibition on ATC hydrolysis activity of PpAChE5” value against PpAChE5 [6] (in words) is listed as “strong inhibition”. The IC50 at PpAChE5 [6] (PpAChE5, on ATC hydrolysis) was 1160 ± 157 nM; in the test with PpAChE2 [7] (PpAChE2, on ATC hydrolysis) it was 1860 ± 251 nM; with PpAChE1 [8] (PpAChE1, on ATC hydrolysis), 117 ± 20.6 nM; with PpAChE4 [9] (PpAChE4, on ATC hydrolysis) it was 245 ± 39.4 nM; with PpAChE3 [10] (PpAChE3, on ATC hydrolysis) it was 65.2 ± 18 nM. In addition, the ki on PpAChE5 [11] is 6.24 ± 1.72 b ×10^−7M^−1min^−1.

With `CC(C)NP(=O)(NC(C)C)OP(=O)(NC(C)C)NC(C)C` [ISO-OMPA, tetraisopropyl pyrophosphoramide], on PpAChE5 [6] (PpAChE5, BTC hydrolysis, in words), the “inhibition against BTC hydrolysis” value is “very weak inhibition”. In addition, the IC50 on PpAChE5 [6] (PpAChE5, on BTC hydrolysis) is greater than 100000 nM; in the test with PpAChE2 [7] (PpAChE2, on BTC hydrolysis), 21700 ± 3260 nM; in the test with PpAChE1 [8] (PpAChE1, on BTC hydrolysis) it was greater than 100000 nM; with PpAChE4 [9] (PpAChE4, on BTC hydrolysis), greater than 100000 nM; with PpAChE3 [10] (PpAChE3, on BTC hydrolysis), greater than 100000 nM.

`CCC(=O)SCC[N+](C)(C)C.[I-]` [PTC, propionylthiocholine iodide]: the Km in the test on PpAChE4 [1] was 279 ± 35.2 µM; in the test with PpAChE3 [2], 504 ± 86.8 µM; in the test with PpAChE1 [3], 1150 ± 134 µM; on PpAChE5 [4], 1550 ± 129 µM; with PpAChE2 [5], 4500 ± 319 µM. The Vmax in the test with PpAChE4 [1] is 49.7 ± 8.4 d nmol/mg·min; in the test with PpAChE3 [2], 106.2 ± 15.1 b nmol/mg·min; with PpAChE1 [3], 76.2 ± 9.2 c nmol/mg·min; on PpAChE5 [4], 59.0 ± 7.2 cd nmol/mg·min; in the test with PpAChE2 [5], 156.8 ± 21.3 a nmol/mg·min.
